The text below walks through data of ChEMBL document CHEMBL3507680, “University of Dundee, Gates Library screen for HepG2 cell viability”.

This series can be described thus: Human HepG2 cell viability assay in 384 well format. Also on record: dose 125 nL, time 70.5 hour; concentration not given beside the values. To be noted: HepG2 cells, read-out: Inhibition. The series is classed as toxicity, cell-based.
For `O=S(=O)(C1CC1)N1C[C@H]2CCC[C@@]2(COc2ccccn2)C1`, the cytotoxicity at 70.5 h was -19.4%. For `CCn1cc(CNC(=O)C(C)C)cn1` the value was 0.0963%; for `CCc1ccccc1NC(=O)c1cnn(C)c1C`, -7.12%; for `O=C(c1cscn1)N1CCN2C[C@H](OCc3cccnc3)C[C@H]2C1`, 20%.

Take `O=C(CN1CCOC1=O)N1CCc2nnc(Cc3ccccc3)n2CC1`: the cytotoxicity at 70.5 h came to 17.1%.

Turning to `Cc1nc(N2CCCC2)nc2c1CCN(C(=O)NC1CCCC1)CC2`, the cytotoxicity at 70.5 h was 1.4%. Turning to `Cc1nc(C(C)C)cc(N2CCC3(CCC(=O)N(CC4CC4)C3)CC2)n1`, the cytotoxicity at 70.5 h is -11%.

Turning to `CN1C[C@@H](O)[C@]2(CCN(C(=O)OCc3ccccc3)C2)S1(=O)=O`, the cytotoxicity at 70.5 h is -10.5%. For `C[C@H](c1ccc(F)cc1)n1c(C2CCN(C)CC2)n[nH]c1=O` the value was 19.4%; for `CCCc1nnc(NC2CCN(CCO)CC2)o1`, -6.74%. For `CCN(CC)CC1CN(CCc2ccccc2)Cc2nccn2C1` (stereo unspecified) the value was -4.11%.

Consider `CS(=O)(=O)CCC(=O)NC1CC(c2ccccc2Cl)C1` (stereo unspecified), for which the cytotoxicity at 70.5 h turned out to be 2.56%. The same measure for `O=C1CCSCC(C(=O)NCc2nc(-c3ccccc3)no2)N1` (stereo unspecified): -11.9%. For `Cc1ccccc1C(=O)Nc1cnn(CCN2CCOCC2)c1` the value was 5.4%; for `Cc1nc(NC2CCCC2)c2c(n1)c(C)nn2C`, -14.9%. For `CCN(CC)CC(=O)Nc1ccc(-n2ccc(C(N)=O)n2)cc1` the value was 25.3%; for `Cc1nnc(CN(CCc2ccccc2)C2CCN(C)CC2)s1`, -13.6%. Regarding `COc1ccc(CCC(=O)N(C)CCN2CCOCC2)cc1OC`, the cytotoxicity at 70.5 h was -7.02%. The same measure for `CC(C)(C)c1nc(CNc2ccccc2SCCC(N)=O)cs1`: -107%. As to `O=C(CCc1ccccc1)N1C[C@@H]2CN(Cc3ccoc3)CCO[C@@H]2C1`, the cytotoxicity at 70.5 h was -11.8%. The same measure for `CCC1CCC(NCCN2CCOCC2)CC1` (stereo unspecified): -6.57%.

For the molecule `CN(CCc1cccc2ccccc12)Cc1nc(N)nc(N(C)C)n1`, the cytotoxicity at 70.5 h was determined as 28.3%. For `CC(C)NC(=O)[C@@H](NC(=O)N1CCN(c2ccc(Cl)cc2)CC1)C(C)C` the value was 6.91%; for `CN(Cc1ccco1)C1COC2(CCN(Cc3nccs3)CC2)C1` (stereo unspecified), -21.8%; for `COc1cc(CN(CCCN(C)C)Cc2ccccn2)cc2c1OCO2`, 0.223%. The same measure for `NCC1(c2cccc(C(F)(F)F)c2)CCCCC1`: -4.79%.

Regarding `O=C(O)c1ccc(CNC(=O)C2CCN(Cc3ccco3)CC2)s1`, the cytotoxicity at 70.5 h was -3.49%. Turning to `COc1cc(C)ccc1OCCC(=O)N1CCC(N2CC=CC2)C1` (stereo unspecified), the cytotoxicity at 70.5 h was -2.75%.

As to `Cc1ccc(OCc2nc(CNCC3CN(C)CCO3)cs2)cc1` (stereo unspecified), the cytotoxicity at 70.5 h came to 29.7%. For `Cc1ccc(F)cc1S(=O)(=O)NCc1cccc(C(=O)N2CCCC2)c1` the value was -2.82%; for `CN1CCCc2cc(CNC(=O)c3ccc(-n4cnnc4)cc3)ccc21`, -2.87%. The same measure for `CN1CCC2(C=C(C(=O)N(C)C)c3ccccc32)CC1`: 2.91%; for `c1ccc(CN2C[C@H]3CCC[C@@]3(COCC3CCOCC3)C2)nc1`: 0.897%. Turning to `Cc1cc(C)n(CCNc2ncnc3c2NC(=O)CN3)n1`, the cytotoxicity at 70.5 h is -15.7%. For `Cc1ccc(C2CN(c3nnc(C(F)F)s3)CCO2)c(C)c1` (stereo unspecified) the value was -4.44%; for `Cc1cccc(N2CCN(C(=O)CN3CCN(CCO)CC3)CC2)c1`, 0.659%; for `Cc1n[nH]c(C2CN(Cc3nnc(C4CC4)n3C)CCO2)n1` (stereo unspecified), -6.69%. The same measure for `CSc1ccc(-c2noc(CN(CC(C)C)CC(C)C)n2)cc1`: -12.7%; for `CC(C(=O)NC(N)=O)N1CCN(c2ccc(C#N)cc2F)CC1` (stereo unspecified): -19.1%; for `COC1CCN(S(=O)(=O)N2C[C@H](c3ccccc3)[C@@H](N)C2)CC1`: -2.79%. For the molecule `CC(=O)N1CCC(c2cncc(Cl)n2)CC1`, the cytotoxicity at 70.5 h came to 2.82%. For `CCN(CC1CCOC1)C(=O)c1ccc(N(C)C)cc1F` (stereo unspecified) the value was -1.53%; for `Cc1ncc(-c2ccnc(SCCN)n2)c(-c2ccco2)n1`, 21.8%. For `CCCC(C)(C)NC(=O)c1cnc(CC)s1` the value was -1.12%; for `O=C(NCc1ccc(N2CCSCC2)cc1)NCc1cc[nH]n1`, -10.4%. For `O=C(CCn1cc(Cl)cn1)Nc1ccc2c(c1)OCCO2` the value was -8.19%; for `COc1ccc(C[C@H]2CN(C(=O)CN(C)C)CC[C@H]2OC)cc1`, -6.67%. With `C[C@H]1CN(C)C[C@@]12COCCN(C(=O)Cc1ccccc1)C2`, the cytotoxicity at 70.5 h came out at 0.777%. The same measure for `c1cc(CN2CCCn3cnc(COCC4CC4)c3C2)ccn1`: -2.95%.

As for `CC(Cn1ccnc1)NC(=O)C1(c2ccc(F)cc2)CC1` (stereo unspecified), the cytotoxicity at 70.5 h was -8.11%. The same measure for `O=C(NC1CCC1)[C@H]1C[C@@H]2CN(S(=O)(=O)c3ccccc3)C[C@H]1O2`: -1.64%. As for `CCn1nc(CC(C)C)cc1C(=O)N1C[C@H](O)[C@@H](N2CCCCC2)C1`, the cytotoxicity at 70.5 h is -4.55%. For `Nc1nccc(N2CCC(Cc3ccccc3Cl)(C(=O)O)CC2)n1` the value was -2.75%.

Consider `Cc1ccc(CN2CC[C@@H]3CN(S(C)(=O)=O)CCO[C@@H]3C2)o1`, for which the cytotoxicity at 70.5 h amounted to 7.49%. For `CN1CCC2(COCc3cnc(-c4ccccc4)nc32)C1` (stereo unspecified) the value was -6.86%; for `c1ncn(CC2CN(Cc3nc(C4CC4)no3)CCO2)n1` (stereo unspecified), 17.2%; for `Cc1cc(NC(=O)CNC(C)(C)c2nc(C)c(C)s2)no1`, -7.18%.

On to `COc1ccc(Cl)cc1S(=O)(=O)N(C)CC(=O)Nc1ccccc1`, for which the cytotoxicity at 70.5 h was -9.85%. Regarding `O=C1CC(N(C(=O)c2ccc(-n3cccc3)cc2)C2CC2)C(=O)N1` (stereo unspecified), the cytotoxicity at 70.5 h is -4.68%. As to `Cc1cnn(CCNC(C)C(=O)Nc2ccc(Cl)cn2)c1` (stereo unspecified), the cytotoxicity at 70.5 h was -9.14%. For `CC(=O)N(Cc1noc(C2CC2)n1)C1CCN(CC(=O)NC2CC2)C1` (stereo unspecified) the value was -7.63%; for `COc1cc(CNC(C)Cn2cccn2)cc(OC)c1` (stereo unspecified), -9.25%; for `CN(C)S(=O)(=O)N1CCN(C(=O)c2cc(-c3ccccc3)[nH]n2)CC1`, -0.515%. Turning to `O=C(c1ccccn1)N1CC(S(=O)(=O)c2ccc(Cl)cc2)C1`, the cytotoxicity at 70.5 h stood at 1.72%. For `CCNc1cc2c(nn1)CCN(C(=O)c1ccc3cc[nH]c3c1)C2` the value was 2.8%; for `Cc1c(C2CCOC(C)(C)C2)nc(N)c(C#N)c1-c1ccc(O)cc1` (stereo unspecified), 11.3%.

Consider `Cc1ccc(N2CCN(C(=O)COc3ccccc3)CC2)nn1`, for which the cytotoxicity at 70.5 h was -1.33%. For `Cc1cccc(OCC(=O)NS(=O)(=O)Cc2ccccc2)c1` the value was -5.52%; for `Cn1cc(-c2nc(CN3CCn4c(nnc4C4CC4)C3)cs2)cn1`, -4.85%. The same measure for `OC(COCc1ccco1)CSc1nnc2ccccn12` (stereo unspecified): -6.03%. For `Cc1ncsc1CCN(C)C(=O)CN1CCCCCC1=O` the value was -2.38%.
